The values below come from article PMC5845353, “The selective cathepsin K inhibitor MIV-711 attenuates joint pathology in experimental animal models of osteoarthritis” (Journal of Translational Medicine, 2018).

Molecules are shown by their SMILES.

In one series the test system is plasma proteins. Nature of the series: Fraction bound to plasma proteins, dog. It is filed as in vitro ADME.
Series [1] has as its system rabbits subjected to anterior cruciate ligament transection (ACLT). Nature of the series: Rabbit ACLT study, µCT osteophyte volume. It is filed as in vivo. Particulars: 30 and 100 µmol/kg, data not shown. The procedure:
Starting 1 week after sham operation or ACLT, animals were dosed daily for 7 weeks by oral gavage with either MIV-711 (synthesized by Medivir and given as a suspension in 1% Methocel A4C in water) or vehicle (1% Methocel A4C in water) at a dose volume of 4 mL/kg. The four treatment groups (n = 7 in each group) were: (1) sham + vehicle; (2) ACLT + vehicle; (3) ACLT + MIV-711, 30 µmol/kg (low dose) and (4) ACLT + MIV-711, 100 µmol/kg (high dose).
Femora and tibias from all animals were subjected to µCT scanning without and with contrast reagent, to visualize bone and cartilage, respectively. Samples were scanned on a high-resolution, volumetric µCT scanner (μCT40, ScanCo Medical, Zurich, CH). The image data was acquired with the following parameters: 36 μm isotropic voxel resolution at 300 ms exposure time, 2000 views and 1 frame per view. Each sample was scanned twice, once for acquiring bone data and once for soft tissue data. […] After the segmentation process, the voxel count associated with each of the regions of interest was calculated using VHLab. […] Cartilage thickness was calculated using SCIRun (Scientific Computing and Imaging Institute, University of Utah). The distance from the bone to the outer surface of the articulating cartilage was calculated. […] Similarly, the thickness and thickness map image of the subchondral bone was calculated. […]

The test system of the next series is CTX-I. Nature of the series: Urinary CTX-I in dogs subjected to partial medial meniscectomy. It is filed as in vivo. Particulars: dog, 30 µmol/kg. The method, then: (§1) Dogs subjected to partial medial meniscectomy received either 30 µmol/kg MIV-711 (synthesized by Medivir and given as a suspension in 1% Methocel A4C; n = 15) or vehicle (1% Methocel A4C; n = 15) by orogastric gavage once daily in the morning. […] Dosing started the day before surgery and lasted through Day 28, the day before necropsy. Each dog was fasted for at least 12 h before dosing and food were returned approximately 4 h following test article administration.
Urine samples were collected from the animals 1 to 3 days before surgery and treatment (baseline sample), 4 to 7 days after the start of treatment (Day 7 sample) and 26 to 28 days after treatment (Day 28 sample). Dogs were housed in metabolic cages overnight during urine collection. […]
In rabbits, conventional CTX-I assays to assess bone resorption cannot be used due to species differences. Instead, urinary helical peptide (HP-1) concentrations were measured in rabbits using the MicroVue Helical Peptide kit (Ref: 8022) from Quidel (San Diego, CA) according to the instructions supplied by the manufacturer. In dogs, urinary levels of C-terminal telopeptide of collagen type I (CTX-I) were measured using a commercially available kit (Urine BETA CrossLaps ELISA, Ref: AC-05F1, IDS Nordic Bioscience Diagnostics A/S). […] In dogs, CTX-II levels were also measured in synovial fluid. […]

Series [2] has as its system dogs subjected to partial medial meniscectomy. As to the kind of experiment: Dog partial medial meniscectomy study, tibial cartilage lesion area by imaging analysis of photographs. The following applies: 30 µmol/kg. It is filed as in vivo. The procedure: as §1
All animals were humanely euthanized on Day 29 to collect specimens for pathology. Following sedation with acepromazine, euthanasia was performed via injection of a pentobarbital-based euthanasia solution (≥ 88 mg/kg pentobarbital). At study termination, the left (operated) knee was opened, disarticulated and the lesions on the medial tibia and femur measured, described and photographed. The observers were blinded to the treatment. Photographs were used (with or without India Ink lesion enhancement) to determine % area of lesions on each medial tibial plateau. Lesions were classified as more severe or less severe depending on the intensity of India ink staining or perception of depth and areas for each calculated. Gross cartilage lesions were measured (length × width) and described as superficial, moderate, or deep. Gross subjective cartilage degeneration scores were assigned for the medial and lateral tibial and femoral compartments as follows based on lesion measurements (see above): 0: normal, 1: superficial degeneration up to 10 mm^2, 2: superficial degeneration greater than 10 mm^2, 3: moderate depth degeneration up to 15 mm^2, 4: moderate depth degeneration greater than 15 mm^2. Subjective scores for the various regions were then used to generate an overall index of subjective cartilage degeneration for each region for each animal. Actual measurements of cartilage lesions were used to derive a calculated set of data points based on length × width × depth score (with depth score of 1 = superficial, 2 = medium, and 3 = deep, based on gross description). Percent of more or less severe tibial lesion area was determined from photographs taken at necropsy.

Turning to `C#C[C@@H]1CN(C(=O)[C@H](CC(C)C)NC(=O)c2ccc(-c3nc(N4CCN(C)CC4)sc3F)cc2)[C@@H]2C(=O)CO[C@H]12` [MIV-711], the “fraction bound to plasma proteins” value in the series with plasma proteins is 90%. Also, the “effect on osteophyte volumes in femur and tibia (µCT)” value in series [1] is given as “not apparently affected”. Moreover, the “urinary CTX-I levels reduced by” value is recorded as 78% in the series on CTX-I (Day 7, vs. baseline) and 86% in the series on CTX-I (Day 28, vs. baseline). The “Total lesion area, reduction vs vehicle (printed in Fig. 7)” value in series [2] (dog, left tibia plateau) is recorded as 26%. The “proportion of tibial cartilage affected by lesions (lesioned area)” value in series [2] (dog, left tibia plateau, vehicle 21.0% ± 2.6) was determined as 15.5%. In addition, the “area of severe lesions, lower than vehicle group” value in series [2] (dog, p = 0.08) came out at 80%. For the same molecule, in series [2] (dog, vehicle 6/15), the “dogs with severe tibial cartilage lesions” value is listed as 3/15. For the same molecule, the “area of severe tibial cartilage lesions” value in series [2] (three dogs with severe lesions, vehicle 10 ± 4%) worked out at 2 ± 1%.
